Laboratory results as given in patent publication US9169254B2, “Spiroimidazolone derivative” (Chugai Seiyaku Kabushiki Kaisha, priority 2009, dated 2015).

Target: T1, human PTH1 receptor (Homo sapiens, UniProt Q03431)
T1 sequence (Q03431 27-593): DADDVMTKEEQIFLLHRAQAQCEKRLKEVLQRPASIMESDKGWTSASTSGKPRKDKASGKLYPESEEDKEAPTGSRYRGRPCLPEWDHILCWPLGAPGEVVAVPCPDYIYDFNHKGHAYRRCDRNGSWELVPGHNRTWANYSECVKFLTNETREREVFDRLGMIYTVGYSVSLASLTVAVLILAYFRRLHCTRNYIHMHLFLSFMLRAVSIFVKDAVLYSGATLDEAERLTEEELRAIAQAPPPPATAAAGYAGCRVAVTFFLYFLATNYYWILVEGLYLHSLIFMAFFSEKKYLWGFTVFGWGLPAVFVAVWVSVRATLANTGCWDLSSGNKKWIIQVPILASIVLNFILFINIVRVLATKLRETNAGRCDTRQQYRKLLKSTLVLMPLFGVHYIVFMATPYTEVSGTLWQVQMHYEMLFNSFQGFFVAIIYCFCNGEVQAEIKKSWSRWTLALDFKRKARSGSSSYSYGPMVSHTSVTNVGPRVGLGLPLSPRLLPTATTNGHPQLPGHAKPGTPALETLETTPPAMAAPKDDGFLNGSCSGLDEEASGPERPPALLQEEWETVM
Test: In vitro cAMP signal activity in HKRK-B7 cells (LLC-PK1 cells overexpressing the human PTH1 receptor)
Type: cell-based
Settings: HKRK-B7 cells; compound at 1×10^−3 M; cAMP produced as percentage of that produced by hPTH(1-34) at 100 nM

Row | Compound | cAMP production activity (%)
1 | Cc1cc(N(C)C(N)=O)cc(C)c1CCS(=O)(=O)N1CCC2(CC1)N=C(CCCCCCCC(F)(F)C(F)(F)F)NC2=O [Compound 1302, 1-(3,5-dimethyl-4-{2-[4-oxo-2-(8,8,9,9,9-pentafluoro-nonyl)-1,3,8-triaza-spiro[4.5]dec-1-ene-8-sulfonyl]-ethyl}-phenyl)-1-methyl-urea] | 95%
2 | Cc1cc(N(C)C(N)=O)cc(C)c1/C=C/S(=O)(=O)N1CCC2(CC1)N=C(CCCCCCCC(F)(F)C(F)(F)F)NC2=O [Compound 1303, 1-(3,5-dimethyl-4-{(E)-2-[4-oxo-2-(8,8,9,9,9-pentafluoro-nonyl)-1,3,8-triaza-spiro[4.5]dec-1-ene-8-sulfonyl]-vinyl}-phenyl)-1-methyl-urea] | 102%
3 | Cc1cc(N(C)C(N)=O)cc(C)c1/C=C/S(=O)(=O)N1CCC2(CC1)N=C(CCCCCCCCC(F)(F)F)NC2=O [Compound 1304, 1-(3,5-dimethyl-4-{(E)-2-[4-oxo-2-(9,9,9-trifluoro-nonyl)-1,3,8-triaza-spiro[4.5]dec-1-ene-8-sulfonyl]-vinyl}-phenyl)-1-methyl-urea] | 107%
4 | Cc1cc(N(C)C(N)=O)cc(C)c1/C=C/S(=O)(=O)N1CCC2(CC1)N=C(c1cccc(SC(F)(F)F)c1)NC2=O [Compound 1305, 1-(3,5-dimethyl-4-{(E)-2-[4-oxo-2-(3-trifluoromethylsulfanyl-phenyl)-1,3,8-triaza-spiro[4.5]dec-1-ene-8-sulfonyl]-vinyl}-phenyl)-1-methyl-urea] | 138%
5 | Cc1cc(N(C)C(N)=O)cc(C)c1CCS(=O)(=O)N1CCC2(CC1)N=C(c1cccc(SC(F)(F)F)c1)NC2=O [Compound 1306, 1-(3,5-dimethyl-4-{2-[4-oxo-2-(3-trifluoromethylsulfanyl-phenyl)-1,3,8-triaza-spiro[4.5]dec-1-ene-8-sulfonyl]-ethyl}-phenyl)-1-methyl-urea] | 159%
6 | Cc1cc(N(C)C(N)=O)cc(C)c1/C=C/S(=O)(=O)N1CCC2(CC1)N=C(CCCCCCCCCCCO)NC2=O [Compound 1307, 1-(4-{(E)-2-[2-(11-hydroxy-undecyl)-4-oxo-1,3,8-triaza-spiro[4.5]dec-1-ene-8-sulfonyl]-vinyl}-3,5-dimethyl-phenyl)-1-methyl-urea] | 116%
7 | Cc1cc(N(C)C(N)=O)cc(C)c1/C=C/S(=O)(=O)N1CCC2(CC1)N=C(CCCCCCCCCCCNC(=O)OC(C)(C)C)NC2=O [Compound 1308, [11-(8-{(E)-2-[2,6-dimethyl-4-(1-methyl-ureido)-phenyl]-ethenesulfonyl}-4-oxo-1,3,8-triaza-spiro[4.5]dec-1-en-2-yl)-undecyl]-carbamic acid tert-butyl ester] | 102%
8 | Cc1cc(N(C)C(N)=O)cc(C)c1/C=C/S(=O)(=O)N1CCC2(CC1)N=C(CCCCCCCCCO)NC2=O [Compound 1309, 1-(4-{(E)-2-[2-(9-hydroxy-nonyl)-4-oxo-1,3,8-triaza-spiro[4.5]dec-1-ene-8-sulfonyl]-vinyl}-3,5-dimethyl-phenyl)-1-methyl-urea] | 109%
9 | [2H]C([2H])([2H])N(C(N)=O)c1cc(C)c(/C=C/S(=O)(=O)N2CCC3(CC2)N=C(c2ccc(F)c(C(F)(F)F)c2)NC3=O)c(C)c1 [Compound 1312, 1-(4-{(E)-2-[2-(4-fluoro-3-trifluoromethyl-phenyl)-4-oxo-1,3,8-triaza-spiro[4.5]dec-1-ene-8-sulfonyl]-vinyl}-3,5-dimethyl-phenyl)-1-[1,1,1-^2H3]methyl-urea] | 105%

Now from value to compound:

Row | cAMP production activity (%) | Compound
10 | 64% | CC(=O)Nc1ccc(CCS(=O)(=O)N2CCC3(CC2)N=C(C2CCC(CCCCF)CC2)NC3=O)c(C)c1 (stereo not shown) [Compound 1296, N-[4-(2-{2-[4-(4-Fluoro-butyl)-cyclohexyl]-4-oxo-1,3,8-triaza-spiro[4.5]dec-1-ene-8-sulfonyl}-ethyl)-3-methyl-phenyl]-acetamide]
11 | 98% | Cc1cc(N(C)C(N)=O)cc(C)c1CCS(=O)(=O)N1CCC2(CC1)N=C(C1CCCC(C)C1)NC2=O (stereo not shown) [Compound 1297, 1-(3,5-Dimethyl-4-{2-[2-(3-methyl-cyclohexyl)-4-oxo-1,3,8-triaza-spiro[4.5]dec-1-ene-8-sulfonyl]-ethyl}-phenyl)-1-methyl-urea]
12 | 117% | Cc1cc(N(C)C(N)=O)cc(C)c1CCS(=O)(=O)N1CCC2(CC1)N=C(C1CC(C)(C)CC(C)(C)C1)NC2=O [Compound 1298, 1-(3,5-Dimethyl-4-{2-[4-oxo-2-(3,3,5,5-tetramethyl-cyclohexyl)-1,3,8-triaza-spiro[4.5]dec-1-ene-8-sulfonyl]-ethyl}-phenyl)-1-methyl-urea]
13 | 87% | Cc1cc(N2C(=O)NC(CO)C2=O)cc(C)c1CCS(=O)(=O)N1CCC2(CC1)N=C([C@H]1CC[C@H](C)CC1)NC2=O (stereo partly shown) [Compound 1299, 3-(3,5-Dimethyl-4-{2-[2-(4-methyl-cyclohexyl)-4-oxo-1,3,8-triaza-spiro[4.5]dec-1-ene-8-sulfonyl]-ethyl}-phenyl)-5-hydroxymethyl-imidazolidine-2,4-dione]
14 | 81% | Cc1cc(CN(C)C(N)=O)cc(C)c1/C=C/S(=O)(=O)N1CCC2(CC1)N=C(C1CCC(CCC(F)(F)F)CC1)NC2=O (stereo not shown) [Compound 1300, 1-[3,5-Dimethyl-4-((E)-2-{4-oxo-2-[4-(3,3,3-trifluoro-propyl)-cyclohexyl]-1,3,8-triaza-spiro[4.5]dec-1-ene-8-sulfonyl}-vinyl)-benzyl]-1-methyl-urea]
15 | 49% | Cc1cc(CN(C)C(N)=O)cc(C)c1/C=C/S(=O)(=O)N1CCC2(CC1)N=C(C1CCC(C)CC1)NC2=O (stereo not shown) [Compound 1301, 1-(3,5-dimethyl-4-{(E)-2-[2-(4-methyl-cyclohexyl)-4-oxo-1,3,8-triaza-spiro[4.5]dec-1-ene-8-sulfonyl]-vinyl}-benzyl)-1-methyl-urea]
16 | 104% | CC(C)=C1CCC(C2=NC3(CCN(S(=O)(=O)CCc4c(C)cc(N(C)C(N)=O)cc4C)CC3)C(=O)N2)CC1 (stereo not shown) [Compound 1310, 1-(4-{2-[2-(4-isopropylidene-cyclohexyl)-4-oxo-1,3,8-triaza-spiro[4.5]dec-1-ene-8-sulfonyl]-ethyl}-3,5-dimethyl-phenyl)-1-methyl-urea]
17 | 79% | Cc1cc(N(C)C(N)=O)cc(C)c1CCS(=O)(=O)N1CCC2(CC1)N=C(C(C)(F)F)NC2=O [Compound 1311, 1-(4-{2-[2-(1,1-difluoro-ethyl)-4-oxo-1,3,8-triaza-spiro[4.5]dec-1-ene-8-sulfonyl]-ethyl}-3,5-dimethyl-phenyl)-1-methyl-urea]
18 | 87% | Cc1cc(CNC(N)=O)cc(C)c1CCS(=O)(=O)N1CCC2(CC1)N=C(C1CCC(CCC(F)(F)F)CC1)NC2=O (stereo not shown) [Compound 1313, [3,5-Dimethyl-4-(2-{4-oxo-2-[4-(3,3,3-trifluoro-propyl)-cyclohexyl]-1,3,8-triaza-spiro[4.5]dec-1-ene-8-sulfonyl}-ethyl)-benzyl]-urea]
19 | 78% | Cc1cc(CNC(N)=O)cc(C)c1CCS(=O)(=O)N1CCC2(CC1)N=C(C1CCC(C)CC1)NC2=O (stereo not shown) [Compound 1314, (3,5-dimethyl-4-{2-[2-(4-methyl-cyclohexyl)-4-oxo-1,3,8-triaza-spiro[4.5]dec-1-ene-8-sulfonyl]-ethyl}-benzyl)-urea]
